What was measured:
[1] = Pharmacokinetic study in dogs, intravenous or inhalation administration; conditions: dog, in vivo
Description: In a pharmacokinetic (PK) study in dogs, alprazolam PK was profiled following either intravenous or inhalation administration.

[2] = Aerosol particle size distribution by Next Generation Pharmaceutical Impactor (NGI); type: physicochemical; conditions: condensation aerosol, FIG. 4
Description: At least 80% by weight of the alprazolam aerosol particles have a size less than 5 microns, preferably at least 90% by weight of the alprazolam aerosol particles have a size less than 5 microns. At least 50% by weight of the alprazolam aerosol particles have a size less than 2 microns, preferably at least 50% by weight of the alprazolam aerosol particles have a size less than 1 micron. The Next Generation Pharmaceutical Impactor (NGI) was used to determine the particle size distribution.

dogs [3] = assay: Cardiovascular and respiratory safety study in dogs, intravenous dosing; type: in vivo
Protocol: However, these changes were within normal ranges and not considered biologically significant. The plasma concentration of alprazolam associated with modest cardiovascular or respiratory effects exceeded 900 ng/mL and would not be expected to induce any significant changes at the range of doses planned considered for clinical studies (0.5 to 2.0 mg).

[4] = system: patients with photosensitive epilepsy; assay: Adverse events and tolerability, Phase 2a study; type: in vivo, human; conditions: for Cough, subjects with adverse event / Dizziness, subjects with adverse event / Dysgeusia, subjects with adverse event / Oral Dysaesthesia, subjects with adverse event / Sedation/somnolence, subjects with adverse event: N = 5
Description: (§1) Secondary study endpoints included assessment of sedation using two visual analogue scales (VAS); correlation of plasma concentrations of inhaled alprazolam with PD effects on the SPR range; correlation of plasma concentrations of inhaled alprazolam with PD effects on sedation; and assessment of adverse events and changes in the neurological examination.
An assessment of adverse events and changes in the neurological examination were made. The safety profile was consistent with oral alprazolam.

[5] = Plasma concentration of alprazolam in phase 1 and phase 2a clinical trials; type: in vivo, human
Protocol: (§2) Patients at least 18 years old with photosensitive epilepsy at 3 sites were tested on a baseline day, and then received in randomized order either inhaled placebo (on 2 days) or 0.5, 1 or 2 mg inhaled alprazolam delivered using a hand-held inhaled alprazolam device. Study days were separated by at least 1 week. Presence (and degree) of photosensitivity was measured predose, then at 2 min, 10 min, 30 min, 1, 2, 4 and 6 hours post-dose. Plasma concentration of study drug was measured at each time point. Sedation was assessed at each time point using the 100-mm linear visual analogue scale (VAS).
FIGS. 5A and 5B show graphs of the mean plasma concentration of alprazolam in phase 1 and phase 2a clinical trials respectively. The graphs indicate a rapid uptake of alprazolam into the plasma after […] administration of the condensation aerosol. […] Mean peak plasma concentration occurred one to two minutes after administration of the alprazolam […] aerosol.

dogs [6] = assay: 5-day exploratory inhalation toxicity study in dogs; type: in vivo; conditions: 5-day inhalation
Protocol: In a 5-day exploratory inhalation toxicity study in dogs, the no-observed-adverse-effect level was 1.5 mg/kg/day for treatment-related histopathological findings.

[7] = cited from earlier work
rat = assay: Rat inhalation MTD study; type: in vivo
rats = assay: 14-day inhalation toxicity study in rats; type: in vivo
Protocol: In the 14-day inhalation toxicity study in rats, the no-adverse-effect level was considered to be 10.3 mg/kg/day.

dogs [8] = assay: 28-day GLP inhalation toxicity study with 14-day recovery in dogs; conditions: 28-day inhalation
[9] = system: patients with photosensitive epilepsy (IPS-induced photoparoxysmal EEG response); assay: Intermittent photic stimulation (IPS) photosensitivity model, Phase 2a proof-of-concept study; type: in vivo, human
Protocol: Example 1 evaluated the ability of inhaled alprazolam to rapidly suppress photosensitivity in a double blind placebo-controlled crossover proof of concept study. This study was an in-clinic, randomized, placebo-controlled, double-blind design, 5-way crossover study design, which allowed for small patient size. Epilepsy patients were evaluated using an Intermittent Photic Stimulation model, allowing for screening for antiepileptic effects without triggering seizures or convulsive responses. Three doses of alprazolam were investigated along with placebo (twice) in 5 subjects.
In patients with photosensitive epilepsy, intermittent photic stimulation was used to elicit generalized epileptiform EEG activity. The subject is exposed to certain frequency of light stimulation (flash frequencies), and photosensitivity range measured. The model has been used to identify antiepileptic effects on a number of drugs.
The primary objectives of the study were to assess 1) the effects of inhaled alprazolam on the IPS-induced photoparoxysmal EEG response in patients with epilepsy, 2) the sedative properties of these doses in order to select maximally-effective dose with the least sedation for further clinical studies, and 3) overall safety. The primary endpoint was the change in the Standard Photosensitivity Range (SPR) in subjects receiving each dose of inhaled alprazolam.
as §2
The test subjects were exposed to intermittent photic stimulation (14 frequencies, from 2 to 60 Hz), starting with lowest frequency and increasing frequency stepwise until a photosensitivity response was elicited. The test was repeated with the highest frequency and decreased frequency. The results can be summarized in a quantitative measure known as the Standardized Photosensitive Range (SPR). The Maximum SPR is 14. In the example shown, SPR is 8. The Primary endpoint is reduction in mean SPR, which is an indication of antiseizure activity. Patients that have a relatively stable SPR were enrolled in the study to allow for small study size.

cytochrome P450 = assay: In vitro cytochrome P450 inhibition potential; type: in vitro ADME; conditions: maximum alprazolam concentration tested
Description: (§3) In vitro drug transporter and cytochrome P450 inhibition potential were also studied.

drug transporter = assay: In vitro drug transporter inhibition potential; type: in vitro ADME; conditions: maximum alprazolam concentration tested
Description: as §3

[10] = system: patients with photosensitive epilepsy; assay: Sedation by visual analogue scale (VAS), Phase 2a study; type: in vivo, human
Protocol: as §2, §1
Assessment of the sedation using 2 visual analogue scales was made. […] A correlation of plasma concentrations of inhaled alprazolam with pharmacodynamic effects on sedation was made. […] Maximum sedation occurred within about two minutes of administration of alprazolam. Clinical observations support early onset of sedation at 30 seconds.

[11] = all treatment arms of the crossover (incl. placebo)

## Cc1nnc2n1-c1ccc(Cl)cc1C(c1ccccc1)=NC2 [alprazolam, 8-chloro-1-methyl-6-phenyl-4H-[1,2,4]triazolo [4,3-α][1,4]-benzodiazepine]
[1]; inhaled or intranasal, inhalation
  Tmax: < 1 min
[1]; inhaled, inhalation versus intravenous
  bioavailability: 85 to 96%
[2]
  mass median aerodynamic diameter (MMAD) of aerosol particles: 1.2 to 1.8 microns
Dogs [3]; intravenous
  plasma concentration associated with modest cardiovascular or respiratory effects: exceeded 900 ng/mL
Dogs [3]; intravenous over 5 sec
  heart rate: transient increase
  respiratory rate: transient decrease
[4]; 0.5 mg
  Cough, subjects with adverse event: 2 n
  Dizziness, subjects with adverse event: 1 n
  Dysgeusia, subjects with adverse event: 2 n
  Oral Dysaesthesia, subjects with adverse event: 2 n
  Sedation/somnolence, subjects with adverse event: 1 n
[4]; 1 mg
  Cough, subjects with adverse event: 1 n
  Dizziness, subjects with adverse event: 0 n
  Dysgeusia, subjects with adverse event: 2 n
  Oral Dysaesthesia, subjects with adverse event: 0 n
  Sedation/somnolence, subjects with adverse event: 2 n
[4]; [11]
  Cough, total number of subjects experiencing an event: 2
  Dizziness, total number of subjects experiencing an event: 1
  Dysgeusia, total number of subjects experiencing an event: 2
  Oral Dysaesthesia, total number of subjects experiencing an event: 2
  Sedation/somnolence, total number of subjects experiencing an event: 2
[4]; doses up to 2 mg, listed as inhaled alprazolam
  serious adverse events: no reported serious adverse events
[4]; in vivo
  tolerability of treatment: well tolerated
[5]; 0.5, 1, 2 mg
  PK analysis, plasma concentrations versus dose: dose proportionality
[5]; after administration of condensation aerosol
  time of mean peak plasma concentration: one to two
[5]; inhaled
  rapid rise in alprazolam plasma levels, time: less than 2 min
Dogs [6]
  no-observed-adverse-effect level for treatment-related histopathological findings: 1.5 mg/kg/day
[7]; chloroform
  solubility in chloroform: freely soluble
[7]; ethanol
  solubility in ethanol: soluble
[7]; methanol
  solubility in methanol: soluble
[7]; water
  solubility in water: practically insoluble
rat
  single inhaled dose well tolerated: up to 10.8 mg/kg
rats
  no-adverse-effect level: 10.3 mg/kg/day
Dogs [8]
  deaths during the study: no deaths
  immunogenic potential: no immunoglobulin or hypersensitivity response
Dogs [8]; females
  no-observed-effect level for histopathological findings: 4.4 mg/kg/day
Dogs [8]; males
  no-observed-effect level for histopathological findings: 2.8 mg/kg/day
[9]; 1 mg and 2 mg doses
  effect on photosensitivity: almost complete elimination of the photosensitivity
[9]; after administration
  time reduction of SPR was maintained: at least six
[9]; all doses (0.5, 1, 2 mg inhaled)
  change in mean standardized photosensitivity range (SPR): decreased
[9]; all doses, post dose
  time to maximal or near-maximal effect on SPR: ≤ 2 min
[9]; at least at the earlier time points
  maximal decrease in SPR: approximately 5 steps
[9]; higher doses
  duration of effects on SPR: 4 h
[9]; in vivo
  onset of SPR response: less than two
[9]; patients with photosensitive epilepsy
  time to suppression of epileptic activity / effects on EEG: ≤ 2 min
[9]; representative patient, FIG. 7B
  epileptiform activity in post-dose EEG traces: complete abolishment of epileptiform activity
Cytochrome P450
  cytochrome P450 inhibition: No inhibition
Drug transporter
  drug transporter inhibition: No inhibition
[10]; 0.5, 1, 2 mg
  sedation, relation to dose: dose related
[10]; after administration
  time to maximum sedation (VAS): two
[10]; in vivo
  early onset of sedation, clinical observations: 30 s
  onset of VAS (sedation) response: less than two
